PubChem BioAssay AID248 (DTP/NCI, 2004)
Values joined by “and” are separate entries in the source; they are usually repeats but may differ in a detail not shown here. Identical values can stand only once. Toxic doses and inconclusive results are not listed. Rule as the data show it: active = T/C of 150% or more; inactive = T/C below 125%.

System: L1210 leukemia ip in BDF1 mice, survival T/C
Experiment: NCI In Vivo Anticancer Drug Screen. Data for tumor model L1210 Leukemia (intraperitoneal) in B6D2F1 (BDF1) mice
Conditions: endpoint: mean survival time, higher = longer survival
In short: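 Tumor was transplanted into mice, which were then dosed with test compound or vehicle alone. Survival was recorded for each group, and the treated figure was expressed relative to the control figure.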

[1] = dose: 100.0 mg/kg/injection, schedule: Q01DX009 (ip), vehicle: saline
[2] = dose: 100.0 mg/kg/injection, schedule: Q04DX003 (ip), vehicle: Klucel (hydroxypropylcellulose) (HPC)
[3] = dose: 200.0 mg/kg/injection, schedule: Q01DX009 (ip), vehicle: saline
[4] = dose: 200.0 mg/kg/injection, schedule: Q04DX003 (ip), vehicle: Klucel (hydroxypropylcellulose) (HPC)
[5] = dose: 400.0 mg/kg/injection, schedule: Q04DX003 (ip), vehicle: Klucel (hydroxypropylcellulose) (HPC)
[6] = dose: 100.0 mg/kg/injection, schedule: Q04DX002 (ip), vehicle: Klucel (hydroxypropylcellulose) (HPC)
[7] = dose: 200.0 mg/kg/injection, schedule: Q04DX002 (ip), vehicle: Klucel (hydroxypropylcellulose) (HPC)
[8] = dose: 400.0 mg/kg/injection, schedule: Q04DX002 (ip), vehicle: Klucel (hydroxypropylcellulose) (HPC)
[9] = dose: 100.0 mg/kg/injection, schedule: Q01DX001 (ip), vehicle: carboxymethylcellulose (CMC)
[10] = dose: 100.0 mg/kg/injection, schedule: Q01DX001 (ip), vehicle: saline
[11] = dose: 200.0 mg/kg/injection, schedule: Q01DX001 (ip), vehicle: saline
[12] = dose: 400.0 mg/kg/injection, schedule: Q01DX001 (ip), vehicle: saline
[13] = dose: 50.0 mg/kg/injection, schedule: Q01DX001 (ip), vehicle: saline

Measured: T/C

CSc1ncnc2c1ncn2NC(=O)C1CCC(=O)N1 (stereo not drawn)
inactive: [1] 104 % of control | [2] 107 % of control | [3] 104 % of control | [4] 100 % of control | dose: 400.0 mg/kg/injection, schedule: Q01DX009 (ip), vehicle: saline 106 % of control | [5] 109 % of control

COC(=O)C1C(C(=O)OC)C2(Cl)C(Cl)=C(Cl)C1(Cl)C2(Cl)Cl (stereo not drawn)
inactive: dose: 100.0 mg/kg/injection, schedule: Q01DX009 (ip), vehicle: Klucel (hydroxypropylcellulose) (HPC) 98 % of control | dose: 200.0 mg/kg/injection, schedule: Q01DX009 (ip), vehicle: Klucel (hydroxypropylcellulose) (HPC) 104 % of control

CN(C)NCCN1CCN(CCCN2c3ccccc3Sc3ccc(C(F)(F)F)cc32)CC1
inactive: dose: 6.25 mg/kg/injection, schedule: Q01DX009 (ip), vehicle: saline 116 % of control | dose: 12.5 mg/kg/injection, schedule: Q01DX009 (ip), vehicle: saline 89 % of control | dose: 12.5 mg/kg/injection, schedule: Q04DX003 (ip), vehicle: saline 101 % of control | dose: 25.0 mg/kg/injection, schedule: Q01DX009 (ip), vehicle: saline 107 % of control | dose: 25.0 mg/kg/injection, schedule: Q04DX003 (ip), vehicle: saline 104 % of control

CCc1cc2oc(C)c(C)c2c(N=Nc2ccc(Cl)cc2)c1O
inactive: [6] 99 % of control | [7] 96 % of control | [8] 99 % of control

NC(CSP(=O)(O)O)=NCC12CC3CC(CC(C3)C1)C2
inactive: dose: 10.0 mg/kg/injection, schedule: Q04DX002 (ip), vehicle: Klucel (hydroxypropylcellulose) (HPC) 102 % of control | dose: 20.0 mg/kg/injection, schedule: Q04DX002 (ip), vehicle: Klucel (hydroxypropylcellulose) (HPC) 109 % of control

O=C(O)c1cc(Cl)cc(F)c1Cl
inactive: [6] 101 % of control | [7] 105 % of control | [8] 105 % of control

O=C1NCCCC1c1nc2cccc3c2n1CCC3 (stereo not drawn)
inactive: [2] 94 % of control | [4] 108 % of control | [5] 97 % of control

CC1(C)Cc2cccc(OC(N)=O)c2O1
inactive: dose: 1.56 mg/kg/injection, schedule: Q04DX003 (ip), vehicle: Klucel (hydroxypropylcellulose) (HPC) 94 % of control | dose: 3.13 mg/kg/injection, schedule: Q04DX003 (ip), vehicle: Klucel (hydroxypropylcellulose) (HPC) 103 % of control | dose: 6.25 mg/kg/injection, schedule: Q04DX003 (ip), vehicle: Klucel (hydroxypropylcellulose) (HPC) 104 % of control

Clc1ccc2c(OCCN3CC3)ccnc2c1
inactive: [9] 102 % of control

O=C(NN=c1c2ccccc2sc2ccccc12)c1cccc2ccccc12
inactive: [10] 103 % of control | [11] 105 % of control | [12] 97 % of control

COc1cc(N)c(OC)nn1
inactive: dose: 100.0 mg/kg/injection, schedule: Q01DX001 (ip), vehicle: other 105 % of control | dose: 200.0 mg/kg/injection, schedule: Q01DX001 (ip), vehicle: other 96 % of control | dose: 400.0 mg/kg/injection, schedule: Q01DX001 (ip), vehicle: other 93 % of control

C/C(O)=C(\C#N)c1ccc(Cl)cc1
inactive: dose: 12.5 mg/kg/injection, schedule: Q01DX001 (ip), vehicle: carboxymethylcellulose (CMC) 100 % of control | dose: 12.5 mg/kg/injection, schedule: Q04DX003 (ip), vehicle: carboxymethylcellulose (CMC) 100 % of control and 104 % of control | dose: 25.0 mg/kg/injection, schedule: Q01DX001 (ip), vehicle: carboxymethylcellulose (CMC) 108 % of control | dose: 25.0 mg/kg/injection, schedule: Q01DX009 (ip), vehicle: carboxymethylcellulose (CMC) 103 % of control and 113 % of control | dose: 25.0 mg/kg/injection, schedule: Q04DX002 (ip), vehicle: carboxymethylcellulose (CMC) 99 % of control and 100 % of control | dose: 25.0 mg/kg/injection, schedule: Q04DX003 (ip), vehicle: carboxymethylcellulose (CMC) 98 % of control and 90 % of control | dose: 50.0 mg/kg/injection, schedule: Q01DX001 (ip), vehicle: carboxymethylcellulose (CMC) 103 % of control and 111 % of control | dose: 50.0 mg/kg/injection, schedule: Q01DX009 (ip), vehicle: carboxymethylcellulose (CMC) 96 % of control and 100 % of control | dose: 50.0 mg/kg/injection, schedule: Q04DX002 (ip), vehicle: carboxymethylcellulose (CMC) 102 % of control and 103 % of control | dose: 50.0 mg/kg/injection, schedule: Q04DX003 (ip), vehicle: carboxymethylcellulose (CMC) 94 % of control and 98 % of control | [9] 97 % of control and 102 % of control | dose: 100.0 mg/kg/injection, schedule: Q01DX009 (ip), vehicle: carboxymethylcellulose (CMC) 94 % of control | dose: 100.0 mg/kg/injection, schedule: Q04DX002 (ip), vehicle: carboxymethylcellulose (CMC) 93 % of control and 90 % of control

CC(C)=CCOC1=CC(=O)C(=O)c2ccccc21
inactive: dose: 25.0 mg/kg/injection, schedule: Q04DX002 (ip), vehicle: saline with Tween-80 87 % of control | dose: 25.0 mg/kg/injection, schedule: Q04DX003 (ip), vehicle: saline with Tween-80 94 % of control | dose: 50.0 mg/kg/injection, schedule: Q04DX002 (ip), vehicle: saline with Tween-80 95 % of control | dose: 50.0 mg/kg/injection, schedule: Q04DX003 (ip), vehicle: saline with Tween-80 93 % of control | dose: 100.0 mg/kg/injection, schedule: Q04DX002 (ip), vehicle: saline with Tween-80 95 % of control | dose: 100.0 mg/kg/injection, schedule: Q04DX003 (ip), vehicle: saline with Tween-80 99 % of control

Cc1cnc(=S)[nH]c1N
inactive: dose: 50.0 mg/kg/injection, schedule: Q01DX009 (ip), vehicle: saline 99 % of control | [1] 95 % of control | dose: 100.0 mg/kg/injection, schedule: Q04DX003 (ip), vehicle: saline 101 % of control | [3] 99 % of control | dose: 200.0 mg/kg/injection, schedule: Q04DX003 (ip), vehicle: saline 105 % of control

COC(=O)c1ccc(-c2cc(Cl)c3cc(S(=O)(=O)F)ccc3n2)cc1
inactive: dose: 100.0 mg/kg/injection, schedule: Q01DX009 (ip), vehicle: saline with Tween-80 94 % of control | dose: 200.0 mg/kg/injection, schedule: Q01DX009 (ip), vehicle: saline with Tween-80 100 % of control | dose: 400.0 mg/kg/injection, schedule: Q01DX009 (ip), vehicle: saline with Tween-80 95 % of control

CCOC(=O)N1C(=O)NC(=O)C1c1ccc(Cl)cc1 (stereo not drawn)
inactive: [13] 96 % of control | [10] 112 % of control | [11] 100 % of control

ClCC[n+]1ccc(-c2cc[n+](CCCl)cc2)cc1
inactive: dose: 156.0 micrograms/kg/injection, schedule: Q01DX Z (ip), vehicle: saline 110 % of control | dose: 313.0 micrograms/kg/injection, schedule: Q01DX Z (ip), vehicle: saline 100 % of control | dose: 625.0 micrograms/kg/injection, schedule: Q01DX Z (ip), vehicle: saline 98 % of control | dose: 1250.0 micrograms/kg/injection, schedule: Q01DX Z (ip), vehicle: saline 98 % of control

O=C(CCCC(=O)NNC(=O)Nc1ccccc1Cl)NNC(=O)Nc1ccccc1Cl
inactive: [13] 102 % of control | [10] 96 % of control | [11] 100 % of control | [12] 93 % of control

CCCCCN(CCCCC)CCCNc1c2c(nc3ccc(Cl)cc13)CCCC2
inactive: [13] 96 % of control
